The values below come from the NIST ThermoML archive (doi:10.1016/j.tca.2016.06.023).

Data set [1] can be described thus: xn = mol fraction of the nth substance listed. The note with it: 81.5 kPa, Liquid, Vibrating tube method.
Data set [2] is described as follows: refractive index (Na D-line) (dimensionless); xn = mol fraction of the nth substance listed. The note with it: 81.5 kPa, Liquid, Standard Abbe refractometry.

± gives the expanded uncertainty stated by the source.

In the case of `O=[N+]([O-])c1ccccc1` [nitrobenzene] + Clc1ccccc1, the mass density (as a rule, mass per unit of volume) in data set [1] (293.15 K, x2 = 0) came out at 1203.05 ± 10 kg/m3; in data set [1] (303.15 K, x2 = 0) it was 1193.15 ± 10 kg/m3; in data set [1] (313.15 K, x2 = 0) it was 1183.21 ± 10 kg/m3; in data set [1] (323.15 K, x2 = 0) it was 1173.27 ± 10 kg/m3; in data set [1] (333.15 K, x2 = 0) it was 1163.32 ± 10 kg/m3. Also, the refractive index (usually a measure of how strongly the sample bends light) in data set [2] (293.15 K, x2 = 0) came to 1.55241 ± 0.01; in data set [2] (303.15 K, x2 = 0) it was 1.54763 ± 0.01; in data set [2] (313.15 K, x2 = 0), 1.54288 ± 0.01; in data set [2] (323.15 K, x2 = 0), 1.53795 ± 0.01; in data set [2] (333.15 K, x2 = 0), 1.53289 ± 0.01.
In the case of `Clc1ccccc1` [chlorobenzene] + Brc1ccccc1, the mass density in data set [1] (293.15 K, x1 = 1) is 1106.49 ± 10 kg/m3; in data set [1] (303.15 K, x1 = 1), 1095.71 ± 10 kg/m3; in data set [1] (313.15 K, x1 = 1), 1084.86 ± 10 kg/m3; in data set [1] (323.15 K, x1 = 1), 1073.96 ± 10 kg/m3; in data set [1] (333.15 K, x1 = 1) it was 1063.01 ± 10 kg/m3. Also, the refractive index turned out to be 1.52455 ± 0.01 in data set [2] (293.15 K, x1 = 1); 1.51902 ± 0.01 in data set [2] (303.15 K, x1 = 1); 1.51346 ± 0.01 in data set [2] (313.15 K, x1 = 1); 1.50781 ± 0.01 in data set [2] (323.15 K, x1 = 1); 1.50223 ± 0.01 in data set [2] (333.15 K, x1 = 1).
`O=[N+]([O-])c1ccccc1` [nitrobenzene] + Brc1ccccc1: the mass density in data set [1] (293.15 K, x2 = 0) was determined as 1203.05 ± 10 kg/m3; in data set [1] (303.15 K, x2 = 0) it was 1193.15 ± 10 kg/m3; in data set [1] (313.15 K, x2 = 0) it was 1183.21 ± 10 kg/m3; in data set [1] (323.15 K, x2 = 0), 1173.27 ± 10 kg/m3; in data set [1] (333.15 K, x2 = 0), 1163.32 ± 10 kg/m3. The refractive index in data set [2] (293.15 K, x2 = 0) worked out at 1.55241 ± 0.01; in data set [2] (303.15 K, x2 = 0), 1.54763 ± 0.01; in data set [2] (313.15 K, x2 = 0), 1.54288 ± 0.01; in data set [2] (323.15 K, x2 = 0) it was 1.53795 ± 0.01; in data set [2] (333.15 K, x2 = 0) it was 1.53289 ± 0.01.
